In patent US7547676B2, “Antagonist peptides to the C5A chemotactic function of vitamin D binding protein” (The Research Foundation of State University of New York, priority 2004, dated 2009):

How the values were obtained:
[1] = tested on: differentiated HL-60 cells; experiment: Chemotaxis assay, differentiated HL-60 cells responding to C5a, C5a plus DBP or ZAS; assay type: cell-based, Human; settings: for block of the cochemotactic function of full-length natural DBP (C5a+DBP) / HL-60 cell chemotactic response to complement-activated serum (ZAS): cells pretreated with 1 μM peptide 30 min; for block of the cochemotactic function of full-length natural DBP (C5a+DBP): 100 pM C5a plus 50 nM DBP, 60 min; for HL-60 cell chemotactic response to complement-activated serum (ZAS): 1% ZAS; for enhancement of C5a-mediated chemotaxis by the peptides: peptides by themselves or mixed together
Experimental: Cells (6×10^6/ml) were resuspended in chemotaxis buffer and treated either with chemotaxis buffer (control), 1 μM of peptide 1 (130-152), or 1 μM of peptide 2 (150-172) for 30 min at room temperature. The chemotactic response of differentiated HL-60 cells to 100 pM C5a alone, C5a plus 50 nM full-length natural DBP or 1% zymosan-activated serum (ZAS) was measured for 60 minutes at 37° C. Numbers represent net cell movement in 60 min, mean±SEM of 3 experiments.
(§1) Cells and cell culture: Human promyelocytic cell line HL-60 was obtained from ATCC (Rockville, Md.) and cultured in RPMI 1640 medium supplemented with 10% FBS. Differentiation of HL-60 cells was initiated with 250 μM Bt2cAMP for 48 hours.
Chemotaxis assay. Chemotaxis was performed as described previously (see Kew, R. R. et al., J. Leukoc. Biol. 58, 55-58 (1995)). In brief, 35 μl of C5a (0.01 to 1 nM) in the chemotaxis buffer (HBSS with 1% BSA, 10 mM HEPES) were placed in duplicate in the lower chamber of a 48-well chamber (Neuroprobe, Md.). The lower compartments were covered with a 5 μm pore cellulose nitrate filter and then 50 μl of the cell suspension (2.5×10^5/well) was pipetted into the upper compartments. The chemotactic chamber was incubated for 1 hour at 37° C. in a humidified incubator with 5% CO2. Following incubation, the filter was fixed, stained and mounted on a microscope slide. Cell movement was measured as the distance in microns that the leading front of the cells had migrated into the filter (see Zigmond, S. et al., J. Exp. Med. 137, 387 (1973)).

[2] = target: T1, DBP immobilized on a Biacore sensor chip (Homo sapiens, UniProt P02774); experiment: Biacore surface plasmon resonance: U937-C5aR cell binding to immobilized DBP; settings: FIG. 9A; 10^6 cells/ml pretreated with 50 nM DBP or 0.5 μM DBP peptide
T1 construct: DBP was purified from human plasma; purchased Biodesign International; host or cells: human plasma
T1 sequence (P02774 17-474): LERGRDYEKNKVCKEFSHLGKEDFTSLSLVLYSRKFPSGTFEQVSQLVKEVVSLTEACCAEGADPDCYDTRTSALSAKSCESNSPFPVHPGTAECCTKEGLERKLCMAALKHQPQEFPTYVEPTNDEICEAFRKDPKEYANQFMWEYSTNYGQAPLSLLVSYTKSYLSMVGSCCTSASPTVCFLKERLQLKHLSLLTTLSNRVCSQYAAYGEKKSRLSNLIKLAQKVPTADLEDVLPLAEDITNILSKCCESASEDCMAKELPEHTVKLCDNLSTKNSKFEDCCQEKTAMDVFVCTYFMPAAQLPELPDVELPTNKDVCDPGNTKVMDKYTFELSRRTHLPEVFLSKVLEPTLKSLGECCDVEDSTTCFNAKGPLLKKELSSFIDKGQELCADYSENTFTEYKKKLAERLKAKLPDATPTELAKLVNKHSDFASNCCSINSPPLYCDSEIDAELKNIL
Experimental: FIG. 8A and FIG. 8B show immobilization of DBP on a Biacore surface plasmon resonance sensor chip CM5. Purified DBP in HBSS (5 μM) was coupled to the sensor chip. Coupling was detected using 5 μg/ml affinity-purified anti-DBP (FIG. 8A). Different concentrations of U937-C5aR cells in HBSS were injected into the flow cell and allowed to interact with the immobilized DBP (FIG. 8B). Data is expressed as response units of the molecular interaction on the sensor chip.
(§2) FIGS. 9A to 9C show the effect of pretreating U937-C5aR cells with purified DBP or DBP peptides on the binding to DBP immobilized on a Biacore sensor chip. FIG. 9A: 10^6 cells/ml in HBSS were not treated (control), pretreated with 50 nM DBP, 0.5 μM DBP peptide 1 (p1) or DBP peptide 2 (p2). FIG. 9B: DBP peptide 1 immobilized to the Biacore sensor chip. FIG. 9C: DBP peptide 2 immobilized to the Biacore sensor chip. Data is expressed as response units of the molecular interaction on the sensor chip.
U937-C5aR cells (10^6 cells/ml in HBSS) were pretreated with a 25 μg/ml control IgG, 50 nM purified DBP or 25 μg/ml affinity-purified anti-CD44 and then allowed to interact with DBP immobilized on a Biacore sensor chip. Data is expressed as response units of the molecular interaction on the sensor chip.
According to the present invention, the interaction of an immobilized ligand, e.g., immobilized DBP, binding to cells can be measure by any established technology available in the art, e.g., by surface plasmon resonance (SPR) or Biacore technology. For example, in the present invention, the binding of U937-C5aR cells to immobilized DBP were examined by Biacore technology, the result of which is used to further determine if the DBP peptides generated in the present invention can alter the interaction U937-C5aR cells and DBP. […] To investigate further the effect of DBP peptides on cell binding, peptide 1 (FIG. 9B) and peptide 2 (FIG. 9C) were immobilized to Biacore sensor chips. […] Finally, the present invention also identifies that CD44 on the cell surface binds DBP and can, in part, mediate the C5a chemotactic cofactor effect of DBP (McVoy and Kew, J. Immunol. 175:4754, 2005). Therefore, using Biacore technology the present invention addresses the effect of blocking CD44 on U937-C5aR binding to immobilized DBP (FIG. 10). In the present invention, U937-C5aR cells were pretreated with either an irrelevant goat IgG (negative control), purified soluble DBP (positive control) or affinity-purified goat anti-CD44. […] These Biacore experiments have provided a powerful quantitative tool to investigate the cell binding region on DBP and examine the effects on DBP peptides on this interaction.

U937-C5aR cells [3] = experiment: Biacore: U937-C5aR cell binding to immobilized DBP peptides; parameters: species or system human; settings: FIG. 9B, 9C; peptide immobilized to Biacore sensor chip
Experimental: as §2
According to the present invention, the interaction of an immobilized ligand, e.g., immobilized DBP, binding to cells can be measure by any established technology available in the art, e.g., by surface plasmon resonance (SPR) or Biacore technology. For example, in the present invention, the binding of U937-C5aR cells to immobilized DBP were examined by Biacore technology, the result of which is used to further determine if the DBP peptides generated in the present invention can alter the interaction U937-C5aR cells and DBP. […] To investigate further the effect of DBP peptides on cell binding, peptide 1 (FIG. 9B) and peptide 2 (FIG. 9C) were immobilized to Biacore sensor chips. […] These Biacore experiments have provided a powerful quantitative tool to investigate the cell binding region on DBP and examine the effects on DBP peptides on this interaction.

U937-C5aR cells [4] = experiment: C5a-induced intracellular calcium mobilization in U937-C5aR cells; assay type: cell-based, human; settings: FIG. 11B, 12; 0.5 μM DBP peptide, 50 nM DBP, 0.1 nM C5a
Experimental: FIG. 11A and FIG. 11B show the effect of DBP on C5a-induced intracellular calcium mobilization in U937-C5aR cells. U937-C5aR cells (10^7 cells/ml) were resuspended in HBSS-1% BSA containing 2 μM Fluo-3 AM and incubated at 37° C. for 40 minutes. Cells incubated without the dye were used as a control to measure autofluorescence (Fmin). Following the dye uptake, cells were washed twice then suspended at 5×10^6 cells/ml in HBSS containing 1% BSA. For the pretreatment experiments, cells were incubated for 30 min at 22° C. with 50 nM DBP or 0.5 μM DBP peptide 1 (p1). For each measurement, 400 μl of cell suspension was added to a cuvette and stimulated with the indicated concentration of C5a (FIG. 11A) or 0.1 nM C5a (FIG. 11B). Fluorescence was then measured immediately using a Perkin-Elmer LS-5 fluorometer at 505 nm excitation, 526 nm emission for Fluo-3 AM. Fmax was measured by treating labeled cells with 60 μM digitonin. Intracellular free calcium concentrations were calculated using the following formula: (Ca^2+)=Kd (F−Fmin)/(Fmax−F), where Kd=325 nM for Fluo-3 according to manufacturer (Molecular Probes). Data are presented as mean±SEM (n=4-6) of the increase in intracellular calcium concentration.
U937-C5aR cells (10^7 cells/ml) were resuspended in HBSS-1% BSA containing 2 μM Fluo-3 AM and incubated at 37° C. for 40 minutes. Cells incubated without the dye were used as a control to measure autofluorescence (Fmin). Following the dye uptake, cells were washed twice then suspended at 5×10^6 cells/ml in HBSS containing 1% BSA. Cells were incubated for 30 min at 22° C. with either 50 nM DBP or 0.5 μM DBP peptide. For each measurement, 400 μl of cell suspension was added to a cuvette and stimulated with 0.1 nM purified C5a. Fluorescence was then measured immediately using a Perkin-Elmer LS-5 fluorometer at 505 nm excitation, 526 nm emission for Fluo-3 AM. Fmax was measured by treating labeled cells with 60 μM digitonin. Intracellular free calcium concentrations were calculated using the following formula: (Ca2+)=Kd (F−Fmin)/(Fmax−F), where Kd=325 nM for Fluo-3 according to manufacturer (Molecular Probes)

[5] = tested on: differentiated HL-60 cells; experiment: Ligand-induced calcium mobilization (Fluo-3 AM) in differentiated HL-60 cells; assay type: cell-based, Human; settings: differentiated HL-60 cells incubated 30 min with 50 nM of indicated DBP, then C5a
Experimental: as §1
Ligand-induced calcium mobilization. Calcium mobilization studies were performed using the Fluo-3 AM probe as described previously (see Merritt, J. E. et al., Biochem. J. 269, 513-519 (1990)). Differentiated HL-60 cells (1×10^7 cells/ml) were resuspended in HBSS-1% BSA containing 2 μM Fluo-3 AM (Molecular Probes, Eugene, Oreg.) and incubated at 37° C. for 40 minutes. Cells incubated without the dye were used as a control to measure autofluorescence (Fmin). Following the dye uptake, cells were washed twice then suspended at 5×10^6 cells/ml in HBSS containing 1% BSA. Half of the cell suspension was treated with 50 nM DBP for 30 min at room temperature, the other half served as the untreated control. For each measurement, 400 μl of cell suspension (with or without DBP) was added to a cuvette and stimulated with various concentrations of purified C5a at room temperature (22-24° C.). Fluorescence was then measured immediately using a Perkin-Elmer LS-5 fluorometer at 505 nm excitation, 526 nm emission for Fluo-3 AM. Fmax was measured by treating labeled cells with 60 μM digitonin. Intracellular free calcium concentrations were calculated using the following formula: (Ca^2+)=Kd (F−Fmin)/(Fmax−F), where Kd=325 nM for Fluo-3 according to manufacturer (Molecular Probes).

G-actin = target: T2, G-actin (Oryctolagus cuniculus, UniProt P68135); experiment: G-actin binding detected by non-denaturing PAGE; settings: non-denaturing PAGE (data not shown)
T2 construct: G-actin was purified from rabbit skeletal muscle; from tissue; host or cells: rabbit skeletal muscle
Experimental: Functional characterization of reDBP. The capacity of reDBP to bind 25(OH)-vitamin D3 was measured to determine if the expressed proteins could functionally bind a physiological ligand. […] The ability of reDBPs to enhance C5a-mediated chemotaxis and Ca^2+ flux in differentiated HL-60 cells was determined next.

| Molecule | block of the cochemotactic function of full-length natural DBP (C5a+DBP) ([1]; listed as DBP peptide 1) | block of the cochemotactic function of full-length natural DBP (C5a+DBP) ([1]; listed as SEQ ID NO: 3) | HL-60 cell chemotactic response to complement-activated serum (ZAS) ([1]; listed as DBP peptide 1) | HL-60 cell chemotactic response to complement-activated serum (ZAS) ([1]; listed as SEQ ID NO: 3) | enhancement of C5a-mediated chemotaxis by the peptides [1] | inhibition of U937-C5aR cell binding to the DBP chip [2] | U937-C5aR cell binding to immobilized peptide (U937-C5aR cells [3]) | block of the DBP-enhanced C5a calcium signal (U937-C5aR cells [4]) | block of the cochemotactic function of full-length natural DBP (C5a+DBP) [1] | enhancement of C5a-mediated chemotaxis (net cell movement) ([1]; differentiated HL-60 cells, 100 pM C5a (FIG. 1: 25-200 pM) plus 50 nM of indicated DBP, 60 min at 37° C) | enhancement of intracellular Ca2+ flux in response to C5a [5] | G-actin binding (G-actin) |
| --- | --- | --- | --- | --- | --- | --- | --- | --- | --- | --- | --- | --- |
| EAFRKDPKEYANQFMWEYSTNYG [peptide 1, DBP residues 130-152] | completely blocked the chemotactic enhancing effect of DBP | completely block | completely blocked | eliminate | could not enhance C5a-mediated chemotaxis | no effect on cell binding | do not bind | completely blocks | – | – | – | – |
| NYGQAPLSLLVSYTKSYLSMVGS [peptide 2, DBP residues 150-172] | – | – | – | – | could not enhance C5a-mediated chemotaxis | about 50% | do bind | – | not | – | – | – |
| full-length reDBP: E. coli expressed full-length human DBP (Gc-2 allele), residues 1-458 (protein) LERGRDYEKNKVCKEFSHLGKEDFTSLSLVLYSRKFPSGTFEQVSQLVKEVVSLTEACCAEGADPDCYDTRTSALSAKSCESNSPFPVHPGTAECCTKEGLERKLCMAALKHQPQEFPTYVEPTNDEICEAFRKDPKEYANQFMWEYSTNYGQAPLSLLVSYTKSYLSMVGSCCTSASPTVCFLKERLQLKHLSLLTTLSNRVCSQYAAYGEKKSRLSNLIKLAQKVPTADLEDVLPLAEDITNILSKCCESASEDCMAKELPEHTVKLCDNLSTKNSKFEDCCQEKTAMDVFVCTYFMPAAQLPELPDVELPTNKDVCDPGNTKVMDKYTFELSRRTHLPEVFLSKVLEPTLKSLGECCDVEDSTTCFNAKGPLLKKELSSFIDKGQELCADYSENTFTEYKKKLAERLKAKLPDATPKELAKLVNKRSDFASNCCSINSPPLYCDSEIDAELKNIL | – | – | – | – | – | – | – | – | – | significantly enhanced | significantly enhanced | bound G-actin in a 1:1 molar complex |
